Measurements taken from patent publication US20260191887A1, “METHODS OF TREATING INFLAMMATION” (THERAPEUTIKOS, INC., priority 2022, published 2026).

Tests used:
[1] = tested on: Cox-2; assay: Western blot of Cox-2 expression in LPS-activated RAW264.7 macrophages; assay type: cell-based, mouse; conditions: LPS 100 ng/mL; NDX1 0.1 and 1 mM, NDX2 and NAG 0.5 and 5 mM
Description: (§1) Mouse RAW264.7 macrophage cell line (ATCC; Manassas, VA, USA) was maintained in DMEM culture medium containing 10% FBS and 1% antibiotic mix. For cell treatment, the test drugs at different doses were added to the culture 0.5 h prior to addition of 100 ng/mL LPS (Sigma-Aldrich Co., St Louis, MO, USA) and then cells were co-treated with LPS for 24 hours.
The cellular proteins were prepared from cells growing on a 6-well plate (approximately 500,000/well) using a commercial cell lysis buffer (Thermo Scientific). Then the protein concentration was determined using the Bradford protein assay kit (Bio-Rad, Hercules, CA, USA). The samples containing 100 μg proteins were run on 10% SDS-polyacrylamide gels at a […] and electro-transferred to nitrocellulose membranes (Thermo Scientific) at a constant voltage of 10 V overnight. […] Using the magic wand tool from the tool palette, the area of each band was selected, and the mean histogram were recorded and then charted. […]

[2] = tested on: IL1β; assay: RT-PCR of IL1β mRNA in LPS-activated RAW264.7 macrophages; assay type: cell-based, mouse; conditions: LPS 100 ng/mL; NDX1 0.1 mM and 0.5 mM, NAG 0.5 mM, NDX2 0.5 mM; n=4
Description: as §1
Total RNA was purified using an RNeasy kit (QIAGEN Sciences, Valencia, CA) according to the protocol provided by the manufacturer, and was stored at −80° C. Synthesis of cDNA from total RNA and the quantitative PCR were carried out by using the iScript™ cDNA synthesis kit and the iQ™ SYBR Green Supermix kit (Bio-Rad Laboratories, Hercules, CA), respectively. The target genes included iNOS, IL-6 and IL-1β. Gene of 18s ribosomal RNA was used as an internal control. The threshold cycle (CT) value was calculated from amplification plots. Data was analyzed using the 2-ΔΔCT method with 18s rRNA serving as the reference. Gene expression was normalized to the control group in each experiment and represented as fold of change. […]

[3] = tested on: mouse macrophage cell line RAW264.7 cells; assay: WST-1 cytotoxicity assay in RAW264.7 cells; assay type: cell-based; conditions: concentrations up to 5 mM, 24 h, n=8
Description: Mouse RAW264.7 macrophage cell line (ATCC; Manassas, VA, USA) was maintained in DMEM culture medium containing 10% FBS and 1% antibiotic mix. For cell treatment, the test drugs at different doses were added to the culture 0.5 h prior to addition of 100 ng/mL LPS (Sigma-Aldrich Co., St Louis, MO, USA) and then cells were co-treated with LPS for 24 hours. Macrophages in the control group and the treatment groups was seeded on a 96-well plate for 24 hrs and the cell number was counted using the WST-1 kit (Fisher Scientific). After removal of the supernatant, 150 μL of the fresh medium was added into each well. Then 15 μL of the Cell Proliferation Reagent WST-1 was added and incubated with cells for 3 hrs in dark with a humidified atmosphere of 5% carbon dioxide at 37° C. Each sample was determined at 450 nm on a microplate reader. No drugs were added in the non-treatment group (NT). There were eight repeats in each group (n=8). The experiment was duplicated.

[4] = tested on: leukocytes migration to the peritoneal cavity; assay: Leukocyte migration to the peritoneal cavity in LPS-induced systemic inflammation in mice; assay type: in vivo, mouse; conditions: LPS 10 mg/kg I.P., compound 200 or 300 mg/kg I.V., vs LPS alone
Description: Male C57BL6/J mice (8 to 10-week-old, 20-25 g) purchased from Charles River were used in this study. Mice were kept in the animal facility of the School of Medicine, University of Virginia (UVa). All experimental procedures were approved by the Ethics Committee on Animal Research of Medical School, UVa and are in accordance with the Guidelines of the National Council for Animal Experimentation Control (CONCEA).
Moderate endotoxemia by LPS was induced with a single dose (10 mg/Kg, i.p.) of LPS (Escherichia coli 0111:B4, Sigma Chemical Co., St. Louis, MO, United States), 30 min after intravenous injection of NAG or NDX1 or NDX2 or the vehicle (saline). Two doses (200 mg/kg body weight and 300 mg/kg body weight) were tested for NAG, NDX1 and NDX2. Animals without any treatment were used to obtain the baseline data. Six hours after LPS treatment, inflammation assays were performed as described below. A total of 40 animals were randomly divided into 5 groups (8 mice/group): non-treatment (NT); 10 mg/Kg LPS plus saline (LPS); 10 mg/Kg LPS plus NAG (LPS+NAG); 10 mg/Kg LPS plus NDX1 (LPS+NDX1); and 10 mg/Kg LPS plus NDX2 (LPS+NDX2). The experiment was duplicated.
Peritoneal cells were collected by lavage with ice-cold Dulbecco's modified Eagle's medium (DMEM, Gibco BRL, Gaithersburg, MD). […]

SMILES: CC(=O)N[C@H]1C(O)O[C@H](CO)[C@@H](O)[C@@H]1O (stereo partly shown) [NAG, N-acetyl glucosamine]
- rank order for inhibition of Cox-2 expression (western blot) [1]: NAG>NDX2>NDX1
- inhibition of IL1β mRNA expression (RT-PCR) [2]: could inhibit IL1β
- toxicity / cell growth (WST-1) [3]: less toxicity than NDX1
- decrease of leukocytes migration to the peritoneal cavity (WST-1 test or DAPI staining) [4]: neither NAG nor NDX2 did
